Assays:
Format in all cases: biochemical
Src = biological target: T1, Src (Homo sapiens, UniProt P12931); experiment: AlphaScreen kinase assay, Src; conditions: read-out: IC50, activity toward kinase Src
T1 construct: P1144. pET-N6 BI-PTP SRC V86-L536-X; made in house

Jnk1 = biological target: T2, Jnk1 (Homo sapiens, UniProt P45983); experiment: AlphaScreen kinase assay, Jnk1; conditions: read-out: IC50, activity toward kinase Jnk1
T2 construct: purchased Upstate Biotechnology

Btk = biological target: T3, Btk (Homo sapiens, UniProt Q06187); experiment: Z'-Lyte FRET kinase assay (Invitrogen), Btk; conditions: read-out: IC50, activity toward kinase Btk
T3 construct: purchased Invitrogen (assay run by Invitrogen)

Jnk2 = biological target: T4, Jnk2 (Homo sapiens, UniProt P45984); experiment: AlphaScreen kinase assay, Jnk2; conditions: read-out: IC50, activity toward kinase Jnk2
T4 construct: purchased Roche Protein Expression Group (Indianapolis, IN)
Method in brief: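 Biotinylated peptide substrate phosphorylation detected by AlphaScreen with phospho-specific antibody acceptor beads and streptavidin donor beads. Compounds tested as 8-point 1:3 serial dilutions from 20 mM DMSO stocks.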

Kit = biological target: T5, Kit (Homo sapiens, UniProt P10721); experiment: AlphaScreen kinase assay, Kit; conditions: read-out: IC50, activity toward kinase Kit
T5 construct: P1332.N6 BI PTP KIT M552-K948-X COD; His6 (N); made in house; host or cells: E. coli (PTP1B co-expressed)

FGFR1 = biological target: T6, FGFR1 (Homo sapiens, UniProt P11362, C488A/C584S); experiment: AlphaScreen kinase assay, FGFR1; conditions: read-out: IC50, activity toward kinase FGFR
T6 construct: P1351.pET N6 BI-PTP FGFR A458-E765-X C488A, C584S; made in house; host or cells: E. coli (PTP1B co-expressed)

B-Raf V600E = biological target: T7, B-Raf V600E (Homo sapiens, UniProt P15056, V600E); experiment: AlphaScreen kinase assay, B-Raf V600E; conditions: read-out: IC50, activity toward kinase B-Raf V600E
T7 construct: P4254. pFastBacBD-CDC37 BRAF D437-K722-X, V600E; His6 with pFastBac HT leader (TEV site) (N); made in house; host or cells: Sf9 (baculovirus; chaperone CDC37 co-expressed)

Fms = biological target: T8, Fms (Homo sapiens, UniProt P07333); experiment: AlphaScreen kinase assay, Fms; conditions: read-out: IC50, activity toward kinase Fms
T8 construct: purchased Upstate Biotechnology

Fak = biological target: T9, Fak (Homo sapiens, UniProt Q05397); experiment: AlphaScreen kinase assay, Fak; conditions: read-out: IC50, activity toward kinase Fak
T9 construct: P1358.pFastBacHtb FAK S411-Q686-X; His6 with pFastBacHTb leader (TEV site) (N); made in house; host or cells: Sf9 (baculovirus)

B-Raf = biological target: T10, B-Raf (Homo sapiens, UniProt P15056); experiment: AlphaScreen kinase assay, B-Raf; conditions: read-out: IC50, activity toward kinase B-Raf
T10 construct: purchased Upstate Biotechnology

Jnk3 = biological target: T11, Jnk3 (Homo sapiens, UniProt P53779); experiment: AlphaScreen kinase assay, Jnk3; conditions: read-out: IC50, activity toward kinase Jnk3
T11 construct: purchased Upstate Biotechnology

Flt1 = biological target: T12, Flt1 (Homo sapiens, UniProt P17948); experiment: AlphaScreen kinase assay, Flt1; conditions: read-out: IC50, activity toward kinase Flt1
T12 construct: P1826.pETN6 BI-PTP FLT1 M799-D1165-X WT; His6 (N); made in house; host or cells: E. coli (PTP1B co-expressed)
T12 sequence (P17948 with tags, fused parts or gaps): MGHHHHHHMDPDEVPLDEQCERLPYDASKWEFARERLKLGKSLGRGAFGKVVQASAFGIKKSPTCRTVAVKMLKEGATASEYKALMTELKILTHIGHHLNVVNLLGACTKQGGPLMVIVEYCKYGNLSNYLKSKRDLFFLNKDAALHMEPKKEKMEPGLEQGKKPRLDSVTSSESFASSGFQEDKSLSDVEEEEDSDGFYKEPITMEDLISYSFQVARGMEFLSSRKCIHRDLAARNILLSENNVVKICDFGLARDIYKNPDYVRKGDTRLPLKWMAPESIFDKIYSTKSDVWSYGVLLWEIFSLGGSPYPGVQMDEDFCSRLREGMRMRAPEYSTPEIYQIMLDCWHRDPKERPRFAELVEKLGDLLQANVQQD

c-Raf-1 = biological target: T13, c-Raf-1 (Homo sapiens, UniProt P04049); experiment: AlphaScreen kinase assay, c-Raf-1; conditions: read-out: IC50, activity toward kinase c-Raf-1
T13 construct: purchased Upstate Biotechnology

Ret = biological target: T14, Ret (Homo sapiens, UniProt P07949); experiment: AlphaScreen kinase assay, Ret; conditions: read-out: IC50, activity toward kinase Ret
T14 construct: P1378.pET-SF BI-PTP RET H661-R1012 HIS; made in house
T14 sequence (P07949 with tags, fused parts or gaps): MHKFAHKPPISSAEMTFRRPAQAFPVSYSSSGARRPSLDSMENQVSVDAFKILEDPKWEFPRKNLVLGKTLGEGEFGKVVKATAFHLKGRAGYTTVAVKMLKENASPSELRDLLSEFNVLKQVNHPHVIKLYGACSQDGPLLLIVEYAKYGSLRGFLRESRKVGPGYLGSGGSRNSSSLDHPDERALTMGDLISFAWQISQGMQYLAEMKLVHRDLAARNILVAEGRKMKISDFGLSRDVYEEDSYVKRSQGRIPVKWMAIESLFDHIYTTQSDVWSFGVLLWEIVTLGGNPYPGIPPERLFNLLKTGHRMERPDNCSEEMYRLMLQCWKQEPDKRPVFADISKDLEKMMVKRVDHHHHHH

Kdr = biological target: T15, Kdr (Homo sapiens, UniProt P35968); experiment: Z'-Lyte FRET kinase assay (Invitrogen), Kdr; conditions: read-out: IC50, activity toward kinase Kdr
T15 construct: purchased Invitrogen (assay run by Invitrogen)

T1 sequence (P12931 with tags, fused parts or gaps): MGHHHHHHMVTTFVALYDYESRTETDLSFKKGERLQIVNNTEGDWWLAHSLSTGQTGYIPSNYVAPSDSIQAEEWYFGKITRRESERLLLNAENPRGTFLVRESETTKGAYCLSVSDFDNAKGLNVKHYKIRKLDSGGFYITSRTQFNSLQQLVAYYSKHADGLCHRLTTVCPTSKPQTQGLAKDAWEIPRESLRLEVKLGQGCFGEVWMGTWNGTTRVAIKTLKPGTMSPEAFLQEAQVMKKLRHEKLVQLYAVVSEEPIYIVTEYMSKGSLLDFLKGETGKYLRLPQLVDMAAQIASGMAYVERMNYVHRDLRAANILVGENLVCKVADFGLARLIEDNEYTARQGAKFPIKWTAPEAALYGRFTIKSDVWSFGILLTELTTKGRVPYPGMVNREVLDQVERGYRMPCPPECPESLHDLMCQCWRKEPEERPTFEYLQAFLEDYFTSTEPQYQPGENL
T10 sequence (P15056 whole entry): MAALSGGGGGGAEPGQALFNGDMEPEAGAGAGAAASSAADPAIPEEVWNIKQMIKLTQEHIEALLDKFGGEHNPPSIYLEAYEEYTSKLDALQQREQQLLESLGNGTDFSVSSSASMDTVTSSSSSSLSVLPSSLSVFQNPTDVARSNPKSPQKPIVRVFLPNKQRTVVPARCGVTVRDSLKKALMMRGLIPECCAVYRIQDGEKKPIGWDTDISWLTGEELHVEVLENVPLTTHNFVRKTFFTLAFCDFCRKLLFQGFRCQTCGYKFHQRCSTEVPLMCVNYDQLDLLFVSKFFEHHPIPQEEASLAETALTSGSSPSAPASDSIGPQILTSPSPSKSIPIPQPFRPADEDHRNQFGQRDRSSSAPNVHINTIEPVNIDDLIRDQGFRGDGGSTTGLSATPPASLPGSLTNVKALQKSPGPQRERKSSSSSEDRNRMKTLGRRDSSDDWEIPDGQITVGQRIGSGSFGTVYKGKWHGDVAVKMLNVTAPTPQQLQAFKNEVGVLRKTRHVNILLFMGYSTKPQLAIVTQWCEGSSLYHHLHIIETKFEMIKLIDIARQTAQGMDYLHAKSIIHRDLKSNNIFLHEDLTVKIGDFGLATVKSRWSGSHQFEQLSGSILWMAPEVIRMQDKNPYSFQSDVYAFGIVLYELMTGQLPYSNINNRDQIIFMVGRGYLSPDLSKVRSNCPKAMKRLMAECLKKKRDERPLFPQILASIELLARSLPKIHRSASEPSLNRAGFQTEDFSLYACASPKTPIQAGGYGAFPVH
T7 sequence (P15056 with tags, fused parts or gaps V600E): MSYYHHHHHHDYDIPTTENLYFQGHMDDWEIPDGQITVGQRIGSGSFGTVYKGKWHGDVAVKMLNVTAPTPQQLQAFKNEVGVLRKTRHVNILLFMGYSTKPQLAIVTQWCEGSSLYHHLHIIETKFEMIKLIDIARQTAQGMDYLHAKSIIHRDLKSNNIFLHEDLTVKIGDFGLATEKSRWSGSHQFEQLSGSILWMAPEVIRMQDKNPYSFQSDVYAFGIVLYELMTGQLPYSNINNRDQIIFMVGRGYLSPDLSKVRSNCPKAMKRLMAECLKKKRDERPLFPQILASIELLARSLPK
T11 sequence (P53779 whole entry): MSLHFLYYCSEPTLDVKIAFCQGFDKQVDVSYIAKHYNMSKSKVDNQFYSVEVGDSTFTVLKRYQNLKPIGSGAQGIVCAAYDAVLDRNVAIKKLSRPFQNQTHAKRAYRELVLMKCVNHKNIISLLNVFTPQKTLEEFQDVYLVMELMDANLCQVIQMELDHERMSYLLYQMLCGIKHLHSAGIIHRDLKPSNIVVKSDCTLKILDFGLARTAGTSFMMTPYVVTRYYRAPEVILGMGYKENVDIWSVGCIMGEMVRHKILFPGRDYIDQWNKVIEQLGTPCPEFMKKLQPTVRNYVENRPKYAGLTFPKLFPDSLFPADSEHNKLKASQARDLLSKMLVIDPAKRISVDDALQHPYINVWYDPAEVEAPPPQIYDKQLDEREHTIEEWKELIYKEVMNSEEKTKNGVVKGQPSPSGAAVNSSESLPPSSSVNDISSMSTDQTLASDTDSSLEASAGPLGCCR
T5 sequence (P10721 with tags, fused parts or gaps): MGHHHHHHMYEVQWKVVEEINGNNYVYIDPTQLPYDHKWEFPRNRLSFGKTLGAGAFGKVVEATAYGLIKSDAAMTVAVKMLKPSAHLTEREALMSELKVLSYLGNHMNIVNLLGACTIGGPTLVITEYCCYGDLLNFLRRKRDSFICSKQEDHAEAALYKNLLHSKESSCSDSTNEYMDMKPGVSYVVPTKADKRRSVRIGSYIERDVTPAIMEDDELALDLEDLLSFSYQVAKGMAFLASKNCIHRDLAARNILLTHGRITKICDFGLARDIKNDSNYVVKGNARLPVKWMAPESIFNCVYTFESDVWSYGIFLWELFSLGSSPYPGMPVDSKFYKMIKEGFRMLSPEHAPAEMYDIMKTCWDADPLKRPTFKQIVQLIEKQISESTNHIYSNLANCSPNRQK
T4 sequence (P45984 whole entry): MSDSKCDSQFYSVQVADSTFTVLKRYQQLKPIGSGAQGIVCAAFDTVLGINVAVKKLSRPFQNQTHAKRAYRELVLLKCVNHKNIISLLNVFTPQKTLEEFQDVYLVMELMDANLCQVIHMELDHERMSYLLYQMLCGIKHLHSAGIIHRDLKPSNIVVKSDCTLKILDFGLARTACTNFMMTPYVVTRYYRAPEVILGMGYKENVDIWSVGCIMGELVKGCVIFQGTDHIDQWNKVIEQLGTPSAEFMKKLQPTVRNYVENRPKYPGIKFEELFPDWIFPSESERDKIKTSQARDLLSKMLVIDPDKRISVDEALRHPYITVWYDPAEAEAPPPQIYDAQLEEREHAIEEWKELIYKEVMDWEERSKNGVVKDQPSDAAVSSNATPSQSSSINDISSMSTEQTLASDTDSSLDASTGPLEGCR
T2 sequence (P45983 whole entry): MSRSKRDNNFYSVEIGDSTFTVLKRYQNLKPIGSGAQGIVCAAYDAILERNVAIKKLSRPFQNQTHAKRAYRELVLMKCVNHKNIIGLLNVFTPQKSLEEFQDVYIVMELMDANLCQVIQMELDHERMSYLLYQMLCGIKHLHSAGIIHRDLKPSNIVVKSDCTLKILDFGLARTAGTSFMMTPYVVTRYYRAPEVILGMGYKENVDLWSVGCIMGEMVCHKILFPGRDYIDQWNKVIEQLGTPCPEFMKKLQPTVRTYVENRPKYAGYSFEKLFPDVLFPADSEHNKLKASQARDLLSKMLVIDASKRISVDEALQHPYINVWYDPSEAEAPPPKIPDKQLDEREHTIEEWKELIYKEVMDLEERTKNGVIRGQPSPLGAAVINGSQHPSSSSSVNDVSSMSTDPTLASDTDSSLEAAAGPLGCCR
T9 sequence (Q05397 411-686): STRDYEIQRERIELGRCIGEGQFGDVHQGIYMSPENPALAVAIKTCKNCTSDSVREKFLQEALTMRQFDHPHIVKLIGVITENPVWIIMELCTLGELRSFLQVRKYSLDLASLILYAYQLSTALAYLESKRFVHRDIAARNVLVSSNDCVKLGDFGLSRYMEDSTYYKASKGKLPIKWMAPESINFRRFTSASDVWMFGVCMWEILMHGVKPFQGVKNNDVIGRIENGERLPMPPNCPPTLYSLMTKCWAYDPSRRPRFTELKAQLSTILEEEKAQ
T13 sequence (P04049 whole entry): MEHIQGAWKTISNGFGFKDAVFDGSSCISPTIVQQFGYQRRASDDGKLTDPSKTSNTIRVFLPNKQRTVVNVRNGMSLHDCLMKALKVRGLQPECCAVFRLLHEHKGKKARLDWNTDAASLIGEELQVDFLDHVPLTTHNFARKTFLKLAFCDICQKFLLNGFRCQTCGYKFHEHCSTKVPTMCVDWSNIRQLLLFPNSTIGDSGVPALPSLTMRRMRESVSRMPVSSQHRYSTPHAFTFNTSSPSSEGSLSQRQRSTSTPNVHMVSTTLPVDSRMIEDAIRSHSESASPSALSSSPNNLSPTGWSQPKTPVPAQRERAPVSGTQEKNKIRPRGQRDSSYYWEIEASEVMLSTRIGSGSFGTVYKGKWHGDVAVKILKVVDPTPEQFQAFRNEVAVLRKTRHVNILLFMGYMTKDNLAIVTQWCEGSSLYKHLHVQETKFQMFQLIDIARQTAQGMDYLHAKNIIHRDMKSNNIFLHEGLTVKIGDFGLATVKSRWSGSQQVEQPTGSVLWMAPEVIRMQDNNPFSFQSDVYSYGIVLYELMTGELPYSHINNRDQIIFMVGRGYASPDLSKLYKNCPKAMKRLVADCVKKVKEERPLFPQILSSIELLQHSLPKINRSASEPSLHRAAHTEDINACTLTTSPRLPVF
T6 sequence (P11362 458-765 C488A/C584S): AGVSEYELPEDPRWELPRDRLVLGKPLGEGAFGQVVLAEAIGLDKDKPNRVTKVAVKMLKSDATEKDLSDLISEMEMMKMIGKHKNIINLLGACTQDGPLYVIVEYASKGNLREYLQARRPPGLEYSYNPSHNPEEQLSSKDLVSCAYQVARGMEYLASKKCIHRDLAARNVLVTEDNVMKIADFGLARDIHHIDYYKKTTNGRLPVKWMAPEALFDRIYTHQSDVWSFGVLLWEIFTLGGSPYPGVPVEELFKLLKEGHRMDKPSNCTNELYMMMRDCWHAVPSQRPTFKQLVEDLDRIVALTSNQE

IC50 (Src) [µM] | IC50 (Jnk1) [µM] | IC50 (Btk) [µM] | IC50 (Jnk2) [µM] | IC50 (Kit) [µM] | IC50 (FGFR1) [µM] | IC50 (B-Raf V600E) [µM] | IC50 (Fms) [µM] | IC50 (Fak) [µM] | IC50 (B-Raf) [µM] | IC50 (Jnk3) [µM] | IC50 (Flt1) [µM] | IC50 (c-Raf-1) [µM] | IC50 (Ret) [µM] | IC50 (Kdr) [µM] | Structure (SMILES)
≤ 10 | ≤ 10 | ≤ 10 | ≤ 10 | ≤ 10 | ≤ 10 | ≤ 10 | ≤ 10 | ≤ 10 | ≤ 10 | ≤ 10 | ≤ 10 | – | – | – | CCCCNC(=O)n1ccc2c(C(=O)c3c[nH]c4ncc(-c5cccnc5)cc34)cccc21 [Compound P-1486, 4-(5-Pyridin-3-yl-1H-pyrrolo[2,3-b]pyridine-3-carbonyl)-indole-1-carboxylic acid butylamide]
– | ≤ 10 | – | ≤ 10 | ≤ 10 | – | ≤ 10 | ≤ 10 | – | ≤ 10 | ≤ 10 | ≤ 10 | – | – | – | CCCCNC(=O)n1ccc2c(C(=O)c3c[nH]c4ncc(-c5ccccc5)cc34)cccc21 [Compound P-1576, 4-(5-Phenyl-1H-pyrrolo[2,3-b]pyridine-3-carbonyl)-indole-1-carboxylic acid butylamide]
– | ≤ 10 | – | ≤ 10 | ≤ 10 | ≤ 10 | ≤ 10 | ≤ 10 | – | ≤ 10 | ≤ 10 | ≤ 10 | – | – | – | O=C(Nc1ccccc1)Nc1cccc(C(=O)c2c[nH]c3ncc(-c4cccnc4)cc23)c1 [Compound P-1591, 1-Phenyl-3-[3-(5-pyridin-3-yl-1H-pyrrolo[2,3-b]pyridine-3-carbonyl)-phenyl]-urea]
≤ 10 | ≤ 10 | – | ≤ 10 | ≤ 10 | ≤ 10 | ≤ 10 | ≤ 10 | ≤ 10 | ≤ 10 | ≤ 10 | ≤ 10 | – | – | – | CCCCNC(=O)Nc1cccc(Cc2c[nH]c3ncc(-c4cccnc4)cc23)c1 [Compound P-1447, 1-butyl-3-[3-(5-pyridin-3-yl-1H-pyrrolo[2,3-b]pyridin-3-ylmethyl)-phenyl]-urea]
– | ≤ 10 | – | ≤ 10 | ≤ 10 | ≤ 10 | ≤ 10 | ≤ 10 | – | ≤ 10 | ≤ 10 | ≤ 10 | – | – | – | CCCS(=O)(=O)Nc1ccc(F)c(C(=O)c2c[nH]c3ncc(-c4ccc(C(=O)N5CCOCC5)cc4)cc23)c1F [Compound P-1548, Propane-1-sulfonic acid (2,4-difluoro-3-{5-[4-(morpholine-4-carbonyl)-phenyl]-1H-pyrrolo[2,3]-pyridine-3-carbonyl}-phenyl)-amide]
≤ 10 | ≤ 10 | – | ≤ 10 | ≤ 10 | ≤ 10 | ≤ 10 | ≤ 10 | ≤ 10 | ≤ 10 | ≤ 10 | ≤ 10 | ≤ 10 | – | – | CCCNC(=O)Nc1ccc(F)c(C(=O)c2c[nH]c3ncc(-c4cccnc4)cc23)c1F [Compound P-0774, 1-[2,4-difluoro-3-(5-pyridin-3-yl-1H-pyrrolo[2,3-b]pyridine-3-carbonyl)-phenyl]-3-propyl-urea]
– | ≤ 10 | – | ≤ 10 | ≤ 10 | – | ≤ 10 | ≤ 10 | – | ≤ 10 | ≤ 10 | ≤ 10 | – | – | – | COCCNC(=O)Nc1cccc(C(=O)c2c[nH]c3ncc(-c4cccnc4)cc23)c1 [Compound P-1566, 1-(2-Methoxy-ethyl)-3-[3-(5-pyridin-3-yl-1H-pyrrolo[2,3-b]pyridine-3-carbonyl)-phenyl]-urea]
– | ≤ 10 | – | ≤ 10 | ≤ 10 | – | ≤ 10 | ≤ 10 | – | ≤ 10 | ≤ 10 | – | ≤ 10 | – | – | CCCS(=O)(=O)Nc1ccc(F)c(C(=O)c2c[nH]c3ncc(-c4cnn(C)c4)cc23)c1F [Compound P-1864, Propane-1-sulfonic acid {2,4-difluoro-3-[5-(1-methyl-1H-pyrazol-4-yl)-1H-pyrrolo[2,3-b]pyridine-3-carbonyl]-phenyl}-amide]
– | ≤ 10 | – | ≤ 10 | ≤ 10 | ≤ 10 | ≤ 10 | ≤ 10 | – | ≤ 10 | ≤ 10 | ≤ 10 | ≤ 10 | – | – | CCCS(=O)(=O)Nc1ccc(F)c(C(=O)c2c[nH]c3ncc(-c4ccc(C(=O)N(C)C)cc4)cc23)c1F [Compound P-1547, 4-{3-[2,6-Difluoro-3-(propane-1-sulfonylamino)-benzoyl]-1H-pyrrolo[2,3-b]pyridin-5-yl}-N,N-dimethyl-benzamide]
– | ≤ 10 | – | ≤ 10 | – | ≤ 10 | ≤ 10 | – | – | – | ≤ 10 | – | – | ≤ 10 | ≤ 10 | CS(=O)(=O)Nc1ccc(F)c(C(=O)c2c[nH]c3ncc(-c4ccccc4)cc23)c1 [Compound P-0308, N-[4-Fluoro-3-(5-phenyl-1H-pyrrolo[2,3-b]pyridine-3-carbonyl)-phenyl]-methanesulfonamide]
– | ≤ 10 | – | ≤ 10 | ≤ 10 | – | ≤ 10 | ≤ 10 | – | ≤ 10 | ≤ 10 | ≤ 10 | – | – | – | CCCCNC(=O)Nc1ccc(F)c(C(=O)c2c[nH]c3ncc(OC)cc23)c1F [Compound P-1567, 1-Butyl-3-[2,4-difluoro-3-(5-methoxy-1H-pyrrolo[2,3-b]pyridine-3-carbonyl)-phenyl]-urea]
≤ 10 | ≤ 10 | – | ≤ 10 | ≤ 10 | ≤ 10 | ≤ 10 | ≤ 10 | ≤ 10 | ≤ 10 | ≤ 10 | ≤ 10 | – | – | – | CCCCNC(=O)Nc1cccc(C(=O)c2c[nH]c3ncc(-c4cccnc4)cc23)c1 [Compound P-1445, 1-Butyl-3-[3-(5-pyridin-3-yl-1H-pyrrolo[2,3-b]pyridine-3-carbonyl)-phenyl]-urea]
– | ≤ 10 | – | ≤ 10 | ≤ 10 | ≤ 10 | ≤ 10 | ≤ 10 | – | ≤ 10 | ≤ 10 | ≤ 10 | – | – | – | O=C(NCc1ccccc1)Nc1cccc(C(=O)c2c[nH]c3ncc(-c4cccnc4)cc23)c1 [Compound P-1554, 1-Benzyl-3-[3-(5-pyridin-3-yl-1H-pyrrolo[2,3-b]pyridine-3-carbonyl)-phenyl]-urea]
